Experimental data: patent US11731973B2, “Substituted pyrazolo[3,4-d]pyrimidines as mTOR inhibitors” (GALDERMA RESEARCH & DEVELOPMENT, priority 2018, dated 2023)

What was measured:
[1] = molecular target: mTOR (Homo sapiens (Human), UniProt P42345); experiment: Inhibitory activity on mTOR kinase (LANTHASCREEN TR-FRET); assay type: biochemical; details: 1 hour reaction at room temperature
[2] = molecular target: mTORC1 (Homo sapiens (Human), UniProt P42345); experiment: mTORC1 inhibitory activity: phosphorylation of S6RP in A431 cells (HTRF); assay type: cell-based; details: 3 hours at 37° C.
[3] = molecular target: mTORC2 (Homo sapiens (Human), UniProt P42345); experiment: mTORC2 inhibitory activity: phosphorylation of AKT in A431 cells (HTRF); assay type: cell-based; details: 3 hours at 37° C.
[4] = test system: patch model of atopic dermatitis; experiment: Patch model of atopic dermatitis (DERP epicutaneous sensitization) in mice; assay type: in vivo, Balb/c mice; details: 0.07% in acetone vehicle, topical
Method: The antagonist (mTOR inhibitor) according to example 31 tested was formulated at 0.07% in an acetone vehicle, applied to the skin of the back of the mouse (10 μl/ear on the two faces) and left for 2 hours before applying the DERP patches. Topical treatments with the antagonist (mTOR inhibitor) or a corticosteroid (betamethasone 17-valerate at 0.01% used as control) were performed only three times in the course of the third and final week of sensitization (on days 44, 47 and 50).
The transepidermal water loss TEWL is measured using a […]® on a control animal. The […]® probe measures the density gradient of water evaporation from the skin indirectly by means of two pairs of sensors (temperature and relative humidity) inside a hollow cylinder. A microprocessor analyzes the values and expresses the evaporation rate in g/h/m2.
The epidermal thickness is measured by histological morphometric analyses on sections 6 μm thick stained with HE using skin samples fixed beforehand with […].
The inflammation score is defined visually as a function of predefined scales of dryness, cutaneous eruption, baldness, excoriation and lichenification. The mean of the five scores attributed to an individual mouse on a given day gives the clinical score attributed on that specific day.
To evaluate the contribution of mTOR to the inflammatory response of atopic dermatitis, the inventors used an atopic dermatitis model described previously based on repeated epicutaneous sensitizations (Spergel et al. JCI 1998; Staumont-Sallé et al. JEM 2015), with Dermatophagoides pteronyssinus (DERP) as antigen. In this model, the skin lesions caused by the atopic dermatitis present inflammation with Th2 dominant characterized by dermal infiltration of CD4+T lymphocytes and of eosinophils accompanied by deposition of eosinophil products and an increase in the cutaneous expression of the Th2 cytokines.
Following the protocol of example 33, the inflammatory response of atopic dermatitis was provoked by epicutaneous sensitization with patches soaked with 100 μg of allergen in sterile saline solution (Dermatophagoides pteronyssinus or DERP) or with a vehicle applied to the abdominal skin 24 hours after shaving and left in place for three periods of one week (with renewal of the patch in the middle of the week), with a 2-week interval between the applications. The presence of the patches and of a transparent occlusive dressing on top prevented the mice from licking, biting and scratching; consequently, the inflammatory response in this model is not due to the itching cycle.
The antagonist according to example 31 (mTOR inhibitor) was formulated at 0.07% in an acetone-based vehicle, applied to the sensitized skin 2 hours before installation of the DERP patches. […]

[5] = days 44, 47 and 50, female Balb/c mice, DERP patches

Row | Ki [1] [nM] | IC50 [2] [nM] | IC50 [3] [nM] | SMILES | change in epidermal thickness (epidermal acanthosis) [4, 5] [%] | change in inflammatory scores [4, 5] | decrease of the increase in the rate of transepidermal water loss TEWL [4, 5] [%] | effect on the parameters studied (TEWL, epidermal thickness, inflammation score) ([4]; DERP patch model in mice)
1 | 2.1 | 2.1 | 4.3 | COc1cc2oc(N)nc2cc1-c1nn(CC(C)(C)C)c2nc(N)nc(N)c12 [Example 18, 3-(2-amino-6-methoxybenzoxazol-5-yl)-1-(2,2-dimethylpropyl)-1H-pyrazolo[3,4-d]pyrimidine-4,6-diamine] | – | – | – | –
2 | 0.8 | 5 | 5.9 | CCNc1nc2cc(-c3nn(CC(C)(C)C)c4nc(N)nc(N)c34)ccc2o1 [Example 11, 1-(2,2-dimethylpropyl)-3-(2-ethylaminobenzoxazol-5-yl)-1H-pyrazolo[3,4-d]pyrimidine-4,6-diamine] | – | – | – | –
3 | 1.2 | 1.2 | 3.8 | C#CC(C)(C)Cn1nc(-c2ccc3oc(N)nc3c2)c2c(N)nc(N)nc21 [Example 14, 3-(2-aminobenzoxazol-5-yl)-1-(2,2-dimethylbut-3-ynyl)-1H-pyrazolo[3,4-d]pyrimidine-4,6-diamine] | – | – | – | –
4 | 1.5 | 1.7 | 7.2 | CC(C)(CO)Cn1nc(-c2ccc3oc(N)nc3c2)c2c(N)nc(N)nc21 [Example 15, 3-[4,6-diamino-3-(2-aminobenzoxazol-5-yl)pyrazolo[3,4-d]pyrimidin-1-yl]-2,2-dimethylpropan-1-ol] | – | – | – | –
5 | 1.7 | 2.2 | 10.2 | CSC(C)(C)Cn1nc(-c2ccc3oc(N)nc3c2)c2c(N)nc(N)nc21 [Example 16, 3-(2-aminobenzoxazol-5-yl)-1-(2-methyl-2-methylsulfanylpropyl)-1H-pyrazolo[3,4-d]pyrimidine-4,6-diamine] | – | – | – | –
6 | 1.2 | 1.1 | 3.7 | C=CC(C)(C)Cn1nc(-c2ccc3oc(N)nc3c2)c2c(N)nc(N)nc21 [Example 12, 3-(2-aminobenzoxazol-5-yl)-1-(2,2-dimethylbut-3-enyl)-1H-pyrazolo[3,4-d]pyrimidine-4,6-diamine] | – | – | – | –
7 | 1.8 | 1.2 | 4 | CC(C)(C)Cn1nc(-c2ccc3oc(N)nc3c2Cl)c2c(N)nc(N)nc21 [Example 17, 3-(2-amino-4-chlorobenzoxazol-5-yl)-1-(2,2-dimethylpropyl)-1H-pyrazolo[3,4-d]pyrimidine-4,6-diamine] | – | – | – | –
8 | 14.3 | 8.1 | 15.3 | Cc1nc(N)nc2c1c(-c1ccc3oc(N)nc3c1)nn2CC(C)(C)C [Example 27, 5-(6-amino-4-methyl-1-neopentyl-1H-pyrazolo[3,4-d]pyrimidin-3-yl)benzo[d]oxazol-2-amine] | – | – | – | –
9 | 0.6 | 1.2 | 3 | CCC(C)(C)Cn1nc(-c2ccc3oc(N)nc3c2)c2c(N)nc(N)nc21 [Example 8, 3-(2-aminobenzoxazol-5-yl)-1-(2,2-dimethylbutyl)-1H-pyrazolo[3,4-d]pyrimidine-4,6-diamine] | – | – | – | –
10 | 2.9 | 2.1 | 7 | CCC(C)(C)Cn1nc(-c2cc3nc(N)oc3cc2OC)c2c(N)nc(N)nc21 [Example 20, 3-(2-amino-6-methoxybenzoxazol-5-yl)-1-(2,2-dimethylbutyl)-1H-pyrazolo[3,4-d]pyrimidine-4,6-diamine] | – | – | – | –

Second part, the compound before the results:

Row | SMILES | Ki [1] [nM] | IC50 [2] [nM] | IC50 [3] [nM] | change in epidermal thickness (epidermal acanthosis) [4, 5] [%] | change in inflammatory scores [4, 5] | decrease of the increase in the rate of transepidermal water loss TEWL [4, 5] [%] | effect on the parameters studied (TEWL, epidermal thickness, inflammation score) ([4]; DERP patch model in mice)
11 | CC(C)n1nc(-c2ccc3oc(N)nc3c2)c2c(Cl)nc(N)nc21 [Example 31, 5-(6-Amino-4-chloro-1-isopropyl-1H-pyrazolo[3,4-d]pyrimidin-3-yl)benzo[d]oxazol-2-amine] | 10 | 8.4 | 21 | −39 | −40 | −68 | reduces all the parameters studied
12 | CC(C)n1nc(-c2ccc3oc(N)nc3c2)c2cnc(N)nc21 [Example 24, 3-(2-aminobenzoxazol-5-yl)-1-isopropyl-1H-pyrazolo[3,4-d]pyrimidin-6-ylamine] | 6.1 | 6.8 | 15.5 | – | – | – | –
13 | CC1(Cn2nc(-c3cc4nc(N)oc4cc3F)c3c(N)nc(N)nc32)CCC1 [Example 4, 3-(2-amino-6-fluorobenzoxazol-5-yl)-1-(1-methylcyclobutylmethyl)-1H-pyrazolo[3,4-d]pyrimidine-4,6-diamine] | – | 1.3 | 3.4 | – | – | – | –
14 | CC(C)(Cn1nc(-c2ccc3oc(N)nc3c2)c2c(N)nc(N)nc21)[C@@H]1CCCO1 [Example 13, (+)-3-(2-aminobenzoxazol-5-yl)-1-((S)-2-methyl-2-tetrahydrofuran-2-ylpropyl)-1H-pyrazolo[3,4-d]pyrimidine-4,6-diamine] | 1.2 | 1.4 | 4.1 | – | – | – | –
15 | CCC(C)(C)Cn1nc(-c2cc(C)c3oc(N)nc3c2)c2c(N)nc(N)nc21 [Example 29, 3-(2-amino-7-methylbenzoxazol-5-yl)-1-(2,2-dimethylbutyl)-1H-pyrazolo[3,4-d]pyrimidine-4,6-diamine] | 102 | 234 | 746 | – | – | – | –
16 | CC(C)[C@H](C)n1nc(-c2cc3nc(N)oc3cc2Cl)c2c(N)nc(N)nc21 [Example 25, 3-(2-amino-6-chlorobenzoxazol-5-yl)-1-((S)-1,2-dimethylpropyl)-1H-pyrazolo[3,4-d]pyrimidine-4,6-diamine] | 8.1 | 4.5 | 13.1 | – | – | – | –
17 | CC(C)n1nc(-c2ccc3oc(N)nc3c2)c2c(N)nc(N)nc21 [Example 21, 3-(2-aminobenzoxazol-5-yl)-1-isopropyl-1H-pyrazolo[3,4-d]pyrimidine-4,6-diamine] | 3.8 | 3.8 | 10.7 | – | – | – | –
18 | CCC(CC)(Cn1nc(-c2ccc3oc(N)nc3c2)c2c(N)nc(N)nc21)S(C)(=O)=O [Example 22, 3-(2-aminobenzoxazol-5-yl)-1-(2-ethyl-2-methanesulfonylbutyl)-1H-pyrazolo[3,4-d]pyrimidine-4,6-diamine] | 3.9 | 10.2 | 26.6 | – | – | – | –
19 | CNc1nc(N)c2c(-c3ccc4oc(N)nc4c3)nn(C(C)C)c2n1 [Example 26, 3-(2-Aminobenzoxazol-5-yl)-1-isopropyl-N^6-methyl-1H-pyrazolo[3,4-d]pyrimidine-4,6-diamine] | 13.4 | 29.7 | 62.2 | – | – | – | –
20 | CC(C)n1nc(-c2ccc3oc(NC4CC4)nc3c2)c2c(N)nc(N)nc21 [Example 28, 3-(2-cyclopropylaminobenzoxazol-5-yl)-1-isopropyl-1H-pyrazolo[3,4-d]pyrimidine-4,6-diamine] | 21 | 43.8 | 40.2 | – | – | – | –
21 | CC(C)C[C@H](C)n1nc(-c2cc3nc(N)oc3cc2F)c2c(N)nc(N)nc21 [Example 2, 3-(2-amino-6-fluorobenzoxazol-5-yl)-1-((S)-1,3-dimethylbutyl)-1H-pyrazolo[3,4-d]pyrimidine-4,6-diamine] | 1 | 1.2 | 2.1 | – | – | – | –
22 | CC(C)(C)Cn1nc(-c2cc3cc(O)cnc3[nH]2)c2c(N)nc(N)nc21 [Example 19, 2-[4,6-diamino-1-(2,2-dimethylpropyl)-1H-pyrazolo[3,4-d]pyrimidin-3-yl]-1H-pyrrolo[2,3-b]pyridin-5-ol] | 2.3 | 27.4 | 65.5 | – | – | – | –
23 | CC(C)Cn1nc(-c2ccc3oc(N)nc3c2)c2c(Cl)nc(N)nc21 [Example 23, 3-(2-aminobenzoxazol-5-yl)-4-chloro-1-isobutyl-1H-pyrazolo[3,4-d]pyrimidin-6-ylamine] | 5.8 | 2.8 | 5.9 | – | – | – | –
